Source: US20240092774A1, “HETEROAROMATIC COMPOUNDS AND USES THEREOF” (HUTCHISON MEDIPHARMA LIMITED, priority 2020, published 2024)
Like-named read-outs stand apart in the source and are kept apart here.

Assays:
[1] = molecular target: Recombinant human CSF1R kinase (Homo sapiens (Human), UniProt P07333); experiment: Measurement of CSF1R kinase activity at molecular level (Z-LYTE); type: biochemical; conditions: Z-LYTE Tyr 1 peptide
Method: Invitrogen, PV3227; • Development reagent B: Invitrogen, PV3295; • Development buffer: Invitrogen. P3127; • Stopping solution: Invitrogen, P3094; • Recombinant human CSF1R kinase: Invitrogen, P[…]; • 384 well plate, black: Corning. 3575; • Envision: Perkin Elmer. 2. […] The test compound was diluted in gradient to 4-fold the reaction concentration and the concentration of DMSO was kept at 8%. […] The mixture was mixed gently with a pipette. • 4) A phosphorylated peptide substrate solution (PP solution): 0.4 μL of Z-LYTETM Tyr1 phosphorylated peptide substrate was added to 99.6 μl of 1.33× kinase buffer. • 5) ATP solution: 10 mM of ATP was diluted to 760 μM with 1.33× kinase buffer to prepare ATP solution. • 6) Development solution: Development reagent B was diluted with Development buffer at a ratio of 1:200. 3. […] 2.5 μL of 4× test compound was added to each reaction well of the 384 plate, and the corresponding volume of 8% DMSO was added to the control well. The plate was placed on ice. […] After adding the reaction components, the 384-well plate was sealed and incubated at 25-30° C. for 1 h in dark. 2) Development Reaction 5 μL of Development solution was added to each well, sealed and incubated at 25-30° C. for another 1 h in dark. 3) Reaction Stopping and Plate Reading 5 μL of stopping solution was added to each well. The Coumarin value (excitation at 400 nm, emission at 445 nm) and Fluorescein value (excitation at 400 nm, emission at 520 nm) were measured, respectively. 4. […] Coumarin emission read-out (445 nm)/Fluorescein emission read-out (520 nm); • C3 445 nm: 100% phosphorylated Coumarin emission read-out; • C3 520 nm: 100% phosphorylated Fluorescein emission read-out; • C1 445 nm: 0% phosphorylated Coumarin emission read-out; • C1 520 nm: 0% phosphorylated Fluorescein emission read-out. […] 5. IC50 values: calculated by using software XL-FitTM (version 5.3) supplied by ID Business Solutions (Guildford, UK), which is an additional software to Microsoft Excel.

[2] = molecular target: CSF1R phosphorylation in THP-1 cells (Homo sapiens (Human), UniProt P07333); experiment: Detection of CSF1R phosphorylation activity at cell level (p-CSF1R ELISA, M-CSF stimulated THP-1 cells); type: cell-based
Method: THP-1 (ATCC), human acute monocytic leukemia cells.
3. Treatment of cells and preparation of lysis buffer
5 μL. of the diluted compound was added to the 50 μL cell culture system, the culture was cultured in a 5% CO2, 37° C. cell incubator for 60 min, 300 ng/mL of M-CSF was added to the cells, and the mixture was stimulated in the 37° C. cell incubator for 1 min, added 50 μL of cell lysis buffer, and stored in a refrigerator at −80° C.
100 μL/well of the p-CSF1R capture antibody diluted to 0.8 μg/mL with PBS was added to the ELISA plate, and the plate was coated on a shaker at room temperature overnight. The culture was washed with PBST, and then added blocking solution and incubated at room temperature for 2 h. The culture was washed with PBST, added 90 μL of cell lysis buffer, and incubated on a shaker at 25° C. for 2 h. The plate was washed with PBST three times, added 100 μL of anti-p-tyrosine-HRP detection antibody diluted with 0.1% PBS-BSA diluent, and incubated on a shaker at 25° C. for 2 h. The plate was washed with PBST washing liquid, added 100 μL of chromogenic substrate and incubated at room temperature for 10-20 min. The reaction was stopped by adding 50 μL of 2N H2SO4. The optical density signal (450/570 nm) of each well was detected in Labsystems Multiskan K3 or Envision.
wherein • Drug-treated well read-out: indicating the optical density signal of a cell well with the test compound treatment. • Background read-out: indicating the optical density signal of a well without cells but with cell lysis buffer. • Cell well read-out: indicating the optical density signal of a cell well not treated with the compound.
6. Calculation of IC50: obtained by using XL-Fit 5.3 software, […]

[3] = THP-1 cells, M-CSF stimulation, p-CSF1R ELISA, read-out: IC50

Chain of Recombinant human CSF1R kinase (P07333 20-972): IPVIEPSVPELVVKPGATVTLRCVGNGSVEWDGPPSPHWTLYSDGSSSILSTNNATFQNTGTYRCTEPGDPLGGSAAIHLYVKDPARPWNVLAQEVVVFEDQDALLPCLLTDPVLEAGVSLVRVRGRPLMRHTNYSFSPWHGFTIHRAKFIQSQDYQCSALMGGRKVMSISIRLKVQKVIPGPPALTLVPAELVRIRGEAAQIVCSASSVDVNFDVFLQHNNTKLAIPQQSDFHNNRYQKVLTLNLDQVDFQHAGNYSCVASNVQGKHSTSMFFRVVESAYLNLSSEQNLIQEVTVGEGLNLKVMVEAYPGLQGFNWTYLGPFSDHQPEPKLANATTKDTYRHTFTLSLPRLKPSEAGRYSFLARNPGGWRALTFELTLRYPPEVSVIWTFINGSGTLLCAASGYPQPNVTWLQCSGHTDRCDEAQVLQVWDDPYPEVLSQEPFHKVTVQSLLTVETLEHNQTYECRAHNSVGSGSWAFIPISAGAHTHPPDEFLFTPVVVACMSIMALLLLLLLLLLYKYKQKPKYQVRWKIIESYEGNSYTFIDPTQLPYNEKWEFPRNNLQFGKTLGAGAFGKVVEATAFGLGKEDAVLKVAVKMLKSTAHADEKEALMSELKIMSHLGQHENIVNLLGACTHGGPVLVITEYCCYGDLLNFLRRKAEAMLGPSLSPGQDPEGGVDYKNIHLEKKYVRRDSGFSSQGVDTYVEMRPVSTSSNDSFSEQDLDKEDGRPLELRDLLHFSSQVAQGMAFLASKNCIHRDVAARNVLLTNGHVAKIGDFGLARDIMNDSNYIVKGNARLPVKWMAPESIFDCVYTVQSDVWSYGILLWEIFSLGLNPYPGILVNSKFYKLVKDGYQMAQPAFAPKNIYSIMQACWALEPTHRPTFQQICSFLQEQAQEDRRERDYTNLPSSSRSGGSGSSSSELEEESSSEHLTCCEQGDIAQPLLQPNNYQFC
Chain of CSF1R phosphorylation in THP-1 cells (P07333 20-972): as above

Row | Compound | IC50 [1] | IC50 [2, 3] | IC50 ([2]; IC50 (μM))
1 | Cn1cc(-c2cc(Oc3cnc4c(c3)OCC(c3ccc(C5CC5)cc3)O4)ccn2)cn1 (racemic) [Compound 48, (R/S)-3-(4-cyclopropylphenyl)-7-((2-(1-methyl-1H-pyrazol-4-yl)pyridin-4-yl)oxy)-2,3-dihydro-[1,4]dioxino[2,3-b]pyridine] | 5 nM | 0.005 µM | –
2 | Cn1cc(-c2cc(Oc3cnc4c(c3)OCC(c3ccc(C5CC5)cc3)O4)ccn2)cn1 (racemic) [Compound 51, (R/S)-3-(4-cyclopropylphenyl)-7-((2-(1-methyl-1H-pyrazol-4-yl)pyridin-4-yl)oxy)-2,3-dihydro-[1,4]dioxino[2,3-b]pyridine] | 8 nM | 0.006 µM | –
3 | Cn1cc(-c2cc(Oc3cnc4c(c3)OCC(c3ccc(C5CC5)nc3)O4)ccn2)cn1 (racemic) [Compound 53, (R/S)-3-(6-cyclopropylpyridin-3-yl)-7-((2-(1-methyl-1H-pyrazol-4-yl)pyridin-4-yl)oxy)-2,3-dihydro-[1,4]dioxino[2,3-b]pyridine] | 3 nM | 0.019 µM | –
4 | Cn1cc(-c2cc(Oc3cnc4c(c3)OCC(c3ccc(C5CC5)nc3)O4)ccn2)cn1 (racemic) [Compound 54, (R/S)-3-(6-cyclopropylpyridin-3-yl)-7-((2-(1-methyl-1H-pyrazol-4-yl)pyridin-4-yl)oxy)-2,3-dihydro-[1,4]dioxino[2,3-b]pyridine] | 2 nM | 0.022 µM | –
5 | O=c1ccnc2ccc(Oc3cnc4c(c3)OCC(c3ccc(C5CC5)cc3)O4)cn12 (racemic) [Compound 55, (R/S)-7-((3-(4-cyclopropylphenyl)-2,3-dihydro-[1,4]dioxino[2,3-b]pyridin-7-yl)oxy)-4H-pyrido[1,2-a]pyrimidin-4-one] | 8 nM | 0.007 µM | –
6 | O=c1ccnc2ccc(Oc3cnc4c(c3)OCC(c3ccc(C5CC5)cc3)O4)cn12 (racemic) [Compound 56, (R/S)-7-((3-(4-cyclopropylphenyl)-2,3-dihydro-[1,4]dioxino[2,3-b]pyridin-7-yl)oxy)-4H-pyrido[1,2-a]pyrimidin-4-one] | 12 nM | 0.014 µM | –
7 | Cn1cc(-c2cc(Oc3cnc4c(c3)O[C@H](c3ccc(C5CC5)cc3)CO4)ccn2)cn1 (single isomer, unassigned) [Compound 49, (R/S)-2-(4-cyclopropylphenyl)-7-((2-(1-methyl-1H-pyrazol-4-yl)pyridin-4-yl)oxy)-2,3-dihydro-[1,4]dioxino[2,3-b]pyridine] | 23 nM | 0.06 µM | –
8 | Cn1cc(-c2cc(Oc3cnc4c(c3)O[C@H](c3ccc(C5CC5)cc3)CO4)ccn2)cn1 (single isomer, unassigned) [Compound 50, (R/S)-2-(4-cyclopropylphenyl)-7-((2-(1-methyl-1H-pyrazol-4-yl)pyridin-4-yl)oxy)-2,3-dihydro-[1,4]dioxino[2,3-b]pyridine] | 73 nM | 0.197 µM | –
9 | COc1ccc(COc2ccc(Oc3ccc4ncc(C)c(=O)n4c3)cn2)cc1 [Compound 1, 7-((6-((4-methoxybenzyl)oxy)pyridin-3-yl)oxy)-3-methyl-4H-pyrido[1,2-a]pyrimidin-4-one] | 10 nM | – | 0.052 µM
10 | Cc1cnc2ccc(Oc3ccc(OCc4ccc(F)cc4)nc3)cn2c1=O [Compound 3] | 81 nM | – | –
11 | Cc1cnc2ccc(Oc3ccc(OCc4ccc(F)c(Cl)c4)nc3)cn2c1=O [Compound 4] | 129 nM | – | –
12 | COc1ccc(COc2ncc(Oc3ccc4ncc(C)c(=O)n4c3)cc2OC)cc1 [Compound 6] | 7 nM | 0.004 µM | –
13 | C#Cc1ccc(COc2ncc(Oc3ccc4ncc(C)c(=O)n4c3)cc2OC)cc1 [Compound 7] | 15 nM | – | –
14 | COc1cc(Oc2ccc3ncc(C)c(=O)n3c2)cnc1OCc1ccc(C(C)C)cc1 [Compound 8] | 67 nM | 0.029 µM | –
15 | COc1cc(Oc2ccc3ncc(C)c(=O)n3c2)cnc1OCc1ccc(C2CC2)c(F)c1 [Compound 9] | 63 nM | 0.006 µM | –
16 | COc1cc(Oc2ccc3ncc(C)c(=O)n3c2)cnc1OCc1cccc(C(C)(C)C#N)c1 [Compound 10] | 44 nM | 0.08 µM | –
17 | COc1cc(Oc2ccc3ncc(C)c(=O)n3c2)cnc1OCc1ccc(C2CC2)cc1F [Compound 11] | 61 nM | 0.164 µM | –
18 | COc1cc(Oc2ccnc(-c3cnn(C)c3)c2)cnc1OCc1ccc(C2CC2)cc1 [Compound 12] | 13 nM | 0.005 µM | –
19 | COc1cc(Oc2ccc3ncc(C)c(=O)n3c2)cnc1OCc1ccc(C2CC2F)cc1 (stereo not drawn) [Compound 13] | 8 nM | 0.017 µM | –
20 | Cc1cnc2ccc(Oc3cnc(OCc4ccc(C5CC5)cc4)c(OCF)c3)cn2c1=O [Compound 14] | 28 nM | 0.048 µM | –

Row | Compound | IC50 [1] | IC50 [2, 3] | IC50 ([2]; IC50 (μM))
21 | COc1cc(Oc2ccc3ncc(C)c(=O)n3c2)cnc1OCc1ccc(C2CC2(F)F)cc1 (stereo not drawn) [Compound 15] | 10 nM | 0.015 µM | –
22 | COc1cc(Oc2ccc3ncn(C)c(=O)c3c2)cnc1OCc1ccc(C2CC2)cc1 [Compound 16] | 22 nM | 0.005 µM | –
23 | COc1cc(Oc2ccc3c(c2)C2=NCCN2C=N3)cnc1OCc1ccc(C2CC2)cc1 [Compound 17] | 15 nM | 0.018 µM | –
24 | COc1cc(Oc2ccc3ncccc3c2)cnc1OCc1ccc(C2CC2)cc1 [Compound 18] | 33 nM | 0.005 µM | –
25 | COc1cc(Oc2ccc3ncc(C)c(=O)n3c2)cnc1OCc1ccc(Cl)cc1 [Compound 19, 7-((6-((4-chlorobenzyl)oxy)-S-methoxypyridin-3-yl)oxy)-3-methyl-4H-pyrido[1,2-a]pyrimidin-4-one] | – | 0.031 µM | –
26 | COc1ccc(COc2ncc(Oc3ccc4ncc(C)c(=O)n4c3)cc2F)cc1 [Compound 20] | 24 nM | 0.06 µM | –
27 | COc1cc(Oc2ccc3ncc(C)c(=O)n3c2)cnc1OCc1ccc(C2CC2)cc1 [Compound 21] | 13 nM | 0.008 µM | –
28 | COc1cc(Oc2ccc3ncc(N)c(=O)n3c2)cnc1OCc1ccc(C2CC2)cc1 [Compound 22] | 12 nM | 0.009 µM | –
29 | COc1cc(Oc2ccc3ncc(C)c(=O)n3c2)cnc1OCc1ccc(-n2cccn2)cc1 [Compound 23] | 5 nM | 0.129 µM | –
30 | COc1cc(Oc2ccc3ncc(N)c(=O)n3c2)cnc1OCc1ccc(-n2cccn2)cc1 [Compound 24] | 3 nM | 0.034 µM | –
31 | COc1cc(Oc2ccc3nccc(=O)n3c2)cnc1OCc1ccc(C2CC2)cc1 [Compound 25] | 8 nM | 0.004 µM | –
32 | COc1cc(Oc2ccc3ncc(C)c(=O)n3c2)cnc1OCc1cccc(Cl)c1 [Compound 26] | 6 nM | 0.108 µM | –
33 | COc1cc(Oc2ccc3ncc(C)c(=O)n3c2)cnc1OCc1ccc(C(C)(C)O)cc1 [Compound 27] | 16 nM | 0.045 µM | –
34 | COc1cc(Oc2ccc3ncc(C)c(=O)n3c2)cnc1OCc1ccc(C(C)(C)C#N)cc1 [Compound 28] | 70 nM | – | –
35 | COc1ccc(COc2ncc(Oc3ccc4ncc(C)c(=O)n4c3)cn2)cc1 [Compound 29] | 6 nM | 0.023 µM | –
36 | COc1ccc(COc2ncc(Oc3ccc4ncc(C)c(=O)n4c3)cc2C#N)cc1 [Compound 30] | 460 nM | – | –
37 | COc1ccc(COc2ncc(Oc3ccc4ncc(N)c(=O)n4c3)cc2C)cc1 [Compound 33] | 150 nM | – | –
38 | COc1ccc(COc2ncc(Oc3ccc4ncc(C)c(=O)n4c3)cc2C)cc1 [Compound 34] | 499 nM | – | –
39 | COc1ccc([C@H]2COc3cc(Oc4ccc5nccc(=O)n5c4)cnc3O2)nc1 [Compound 77] | 80 nM | – | –
